Experiment [1] relates to mice. The experiment can be described thus: tail-flick test in mice. The experiment is classed as in vivo, mouse (male Charles River, Swiss Strain). The following applies: subcutaneous, calculated as the free base, 30 min pretreatment; for ED50: Mus musculus, sc, 0.5 h; for MOUSE TAIL-FLICK ED50: 30 min. The method, then: (B) Tail-flick test in mice
The methodology employed is based on that described by D'Amour and Smith, J. Pharmacol. Exp. Ther. 72, 74/1941.
Male Charles River mice (Swiss Strain), 22-34g body weight were used. Animals were allowed food and water ad libitum and were randomized into groups of 10 prior to experimentation.
Test compounds were dissolved in either distilled water or distilled water plus 0.1 M AMS and administered by the subcutaneous route in a final volume of 10 ml/Kg. Control animals received 10 ml/kg of the appropriate vehicle alone. Following a pretreatment period of 30 min., the mice were again placed under the heat source and the reaction tine re-determined.
Percentage quantal protection was determined as the number of mice in which the reaction time was doubled compared to pretreatment values, expressed as a percentage of the total number of mice in the group.

A further experiment concerns the target T1, KAPPA opiate receptor (Cavia porcellus, UniProt P41144).
T1 construct: fresh guinea pig brain homogenate; from tissue; host or cells: guinea pig whole brain without cerebellum, fresh homogenate
In words: opiate receptors binding, KAPPA (3H-Ethyl Ketocyclazocine, guinea pig brain homogenate). The following applies: fresh guinea pig brain homogenate, 3H-Ethyl Ketocyclazocine with 100nM DAGO and 100nM DADLE, 25° C., 40 min; read-out: OPIATE RECEPTORS BINDING KAPPA Ki. As to the method: Radio receptor binding to μ and K sites is performed on fresh guinea pig brain homogenate prepared according to Kosterlitz. (1981).
(§1) Whole brain without cerebellum is homogenized in 50 mM, Tris-buffer (pH 7.4 at 0° C.) and centrifuged at 49,000×g×10 min.
The pellet is then resuspended in the same buffer, incubated at 37° C. for 45 min. and centrifuged again. 1.9ml of the final homogenate (1:100 in Tris-pH 7.4, 0° C.) is used for the binding assay. Binding to […] sites (Magnan J., 1982) 1 3H [D-Ala2, MePhe4, Gly-o15]Enkephalin (3H-DAGO), an
is determined in the presence of 10-6M Naloxone. 1 Binding to K sites (Magnan J., 1982)
The binding to the K-sites is performed using 3H-Ethyl Ketocyclazocine, a non-selective benzomorphan compound which binds to μ, δ and K-sites, in the presence of 100nM of unlabelled DAGO and 100nM of the enkephalin analogue [DAla^2 -DLeu^5 ]Enkephalin (DADLE), to prevent μ and δ binding respectively.
Final homogenate with solutions of the cold ligand and of the labelled ligand is incubated for 40 min. at 25° C., filtered through Whatman GF/C glass filter discs and washed.
The radioactivity bound to the filters is counted by liquid scintillation spectrophotometry.
The non-specific binding is determined in the presence of 500nM of the benzomorphan non-selective compound Mr 2266.
The equilibrium dissociation constant (KD) and the maximum binding capacity (Bmax) are determined from the analysis of saturation curves, while the inhibition constant (Ki) is determined from the analysis of competition experiments (Hill 1910; Scatchard 1949; Cheng and Prusoff 1973; Gillan et al. 1980).

The next experiment concerns the target T2, MU opiate receptor (Cavia porcellus, UniProt A0ACM8Q262).
T2 construct: 3H-DAGO displacement
In words: opiate receptors binding, MU (3H-DAGO, guinea pig brain homogenate). The method, then:
Radio receptor binding to μ and K sites is performed on fresh guinea pig brain homogenate prepared according to Kosterlitz.
as §1
The pellet is then resuspended in the same buffer, incubated at 37° C. for 45 min. and centrifuged again. 1.9ml of the final homogenate (1:100 in Tris-pH 7.4, 0° C.) is used for the binding assay.
The filters are then dryed, solubilized in Filtercount and the radioactivity monitored. Non specific binding
is determined in the presence of 10-6M Naloxone.

Experiment [2] deals with mice. The experiment can be described thus: p-phenylquinone-induced abdominal writhing test in mice. In kind it is in vivo, mouse (male Charles River, Swiss Strain). The following applies: Mus musculus, sc, 20 min; subcutaneous; calculated as the free base; 20 min pretreatment, p-phenylquinone 2 mg/Kg i.p. The method, then:
(A) P-phenylquinone-induced abdominal writhing test in mice
The methodology employed is based on that described by Sigmund et al, Proc. Soc. Exptl. Biol. 95, 729/1957, modified by Milne and Twomey, Agents and Actions, 10, 31/1980.
Male Charles River mice (Swiss Strain), 25-36g body weight, were used. Animals were allowed food and water ad libitum and were randomized into groups of 10 prior to experimentation. Test compounds were dissolved in either distilled water or distilled water plus 0.1 M AMS, and administered by the subcutaneous route in a final volume of 10 ml/Kg. Control animals received 10 ml/Kg of the appropriate vehicle alone. Following a pretreatment period of 20 min., mice were injected intraperitoneally with p-phenylquinone, 2 mg/Kg at 37° C. in a final volume of […]. […] During this period the number of abdominal writhing responses per animal were recorded where writhing consists of an intermittent contraction of the abdomen associated with hind leg extension.
The degree of antinociceptive protection afforded by the test compound was determined as the mean number of writhing responses observed in the treated group (T) expressed as a percentage of the mean number of writhing responses in the control group (C) according to the following formula:
[1-(T/C]×100%=% graded protection

Setting [3] is: read-out: OPIATE RECEPTORS BINDING MU Ki, fresh guinea pig brain homogenate, 25° C., 40 min.
Setting [4] is: fresh guinea pig brain homogenate, 25° C., 40 min, read-out: OPIATE RECEPTORS BINDING MU Ki.

Structures can show the parent of a compound that is named as a salt. Where two headings read alike, the source gives them in different places.

T2 sequence (A0ACM8Q262 1-400): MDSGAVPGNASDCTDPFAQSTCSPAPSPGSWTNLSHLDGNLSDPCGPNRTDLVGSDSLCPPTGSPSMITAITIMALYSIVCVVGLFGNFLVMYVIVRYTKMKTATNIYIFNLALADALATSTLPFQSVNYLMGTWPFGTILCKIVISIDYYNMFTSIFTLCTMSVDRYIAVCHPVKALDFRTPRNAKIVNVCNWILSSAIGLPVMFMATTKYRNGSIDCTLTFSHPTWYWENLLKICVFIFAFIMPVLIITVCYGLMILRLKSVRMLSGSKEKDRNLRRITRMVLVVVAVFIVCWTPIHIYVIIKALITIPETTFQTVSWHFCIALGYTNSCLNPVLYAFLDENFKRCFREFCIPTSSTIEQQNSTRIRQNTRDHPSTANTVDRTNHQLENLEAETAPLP
T1 sequence (P41144 whole entry): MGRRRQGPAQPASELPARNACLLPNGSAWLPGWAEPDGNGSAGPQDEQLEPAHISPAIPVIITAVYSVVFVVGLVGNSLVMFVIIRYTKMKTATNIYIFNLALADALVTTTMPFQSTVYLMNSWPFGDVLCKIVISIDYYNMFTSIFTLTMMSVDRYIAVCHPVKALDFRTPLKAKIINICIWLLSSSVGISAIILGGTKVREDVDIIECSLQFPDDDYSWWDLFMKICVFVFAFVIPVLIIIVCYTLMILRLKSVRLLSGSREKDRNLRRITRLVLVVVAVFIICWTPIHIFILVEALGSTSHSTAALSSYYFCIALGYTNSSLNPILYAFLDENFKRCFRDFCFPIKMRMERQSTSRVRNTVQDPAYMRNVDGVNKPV

Consider `C[C@H]1Cc2ccccc2[C@H](CN2CCCC2)N1C(=O)Cc1ccc(Cl)c(Cl)c1` (relative stereo) [Example 2, 1-(pyrrolidin-1-yl)methyl-2-(3,4-dichlorophenyl)acetyl-3-methyl-1,2,3,4-tetrahydroisoquinoline hydrochloride hemihydrate acetone. Diastereoisomer TRANS], for which the ED50 in the experiment with mice [1] was greater than 1 mg/kg. The inhibition constant Ki at KAPPA opiate receptor was in the range of 0.001 to 0.05 µM.
For `CC1CN(C(=O)Cc2ccc(Cl)c(Cl)c2)C(CN2CCCC2)c2ccccc21` (single isomer, unassigned) [Example 44, (-)-1-(pyrrolidin-1-yl)methyl-2-(3,4-dichlorophenyl)acetyl-4-methyl-1,2,3,4-tetrahydroisoquinoline D(-) tartrate], the inhibitory constant (Ki) at MU opiate receptor (setting [3]) is 0.0565 µM. Besides, the 50% effective dose (ED50) in the experiment with mice [2] is 0.013 mg/kg; in the experiment with mice [1], 0.025 mg/kg.
For the molecule `O=C(Cc1ccc(Cl)c(Cl)c1)N1CCc2c(O)cccc2C1CN1CCCC1` (single isomer, unassigned; (-)) [Example 54, (-)-1-(pyrrolidin-1-yl)methyl-2-(3,4-dichlorophenyl)acetyl-5-hydroxy-1,2,3,4-tetrahydroisoquinoline hydrochloride], the median effective dose (ED50) with mice [2] was 0.0022 mg/kg; in the experiment with mice [1], 0.006 mg/kg.
Turning to `CC1c2ccccc2C(CN2CCCC2)N(C(=O)Cc2ccc(Cl)c(Cl)c2)C1C` (single isomer, unassigned; diastereoisomer b) [Example 46, 1-(pyrrolidin-1-yl)methyl-2-(3,4-dichlorophenyl)acetyl-3,4-dimethyl-1,2,3,4-tetrahydroisoquinoline diastereoisomer B], the ED50 in the experiment with mice [2] is 0.011 mg/kg. Further, in the experiment with mice [1], the “MOUSE TAIL-FLICK ED50” value is reported as 0.048 mg/kg.
Regarding `CC1c2ccccc2C(CN2CCCCC2)N(C(=O)Cc2ccc(Cl)c(Cl)c2)C1C` (single isomer, unassigned; diastereoisomer b) [Example 49, 1-(piperidin-1-yl)methyl-2-(3,4-dichlorophenyl)acetyl-3,4-dimethyl-1,2,3,4-tetrahydroisoquinoline diastereoisomer B.], the ED50 in the experiment on mice [2] is 0.038 mg/kg; in the experiment with mice [1], 0.077 mg/kg.
In the case of `O=C(Cc1ccc(Cl)c(Cl)c1)N1CC(c2ccccc2)c2ccccc2C1CN1CCCC1` (single isomer, unassigned; diastereoisomer b) [Example 50, 1-(pyrrolidin-1-yl)methyl-2-(3,4-dichlorophenyl)acetyl-4-phenyl-1,2,3,4-tetrahydroisoquinoline hydrochloride monohydrate diastereoisomer B], in the experiment with mice [1], the ED50 was 20 mg/kg.
With `CC1c2ccccc2C(CN2CCCC2)N(C(=O)Cc2ccc(Cl)c(Cl)c2)C1C` (single isomer, unassigned; diastereoisomer c) [Example 47, 1-(pyrrolidin-1-yl)methyl-2-(3,4-dichlorophenyl)acetyl-3,4-dimethyl-1,2,3,4-tetrahydroisoquinoline hydrochloride diastereoisomer C], the “MOUSE TAIL-FLICK ED50” value with mice [1] is given as 8.9 mg/kg.
In the case of `CSc1cccc2c1CCN(C(=O)Cc1ccc(Cl)c(Cl)c1)C2CN1CCCC1` (stereo not shown) [Example 32, 1-(pyrrolidin-1-yl)methyl-2-(3,4-dichlorophenyl)acetyl-5-methylthio-1,2,3,4-tetrahydroisoquinoline hydrochloride], the Ki on MU opiate receptor (setting [4]) was found to be 0.442 µM. Besides, the ED50 is 0.202 mg/kg with mice [2] and 0.365 mg/kg in the experiment on mice [1].
For the molecule `COc1cccc2c1CCN(C(=O)Cc1ccc(C(F)(F)F)cc1)C2CN1CCCC1` (stereo not shown) [Example 33, 1-(pyrrolidin-1-yl)methyl-2-(4-trifluoromethylphenyl)acetyl5-methoxy-1,2,3,4-tetrahydroisoquinoline hydrochloride], at MU opiate receptor (setting [4]), the Ki is 0.142 µM. Moreover, the figures for the 50% effective dose (ED50) with mice [2] and with mice [1] were 0.06 mg/kg and 0.306 mg/kg, respectively.
Consider `O=C(Cc1ccc(C(F)(F)F)cc1)N1CCc2c(O)cccc2C1CN1CCCC1` (stereo not shown) [Example 34, 1-(pyrrolidin-1-yl)methyl-2-(4-trifluoromethylphenyl)acetyl5-hydroxy-1,2,3,4-tetrahydroisoquinoline hydrochloride hemihydrate], for which the inhibitory constant (Ki) at MU opiate receptor (setting [3]) was determined as 0.00059 µM. For the same molecule, the ED50 in the experiment on mice [2] was 0.0023 mg/kg; in the experiment on mice [1] it was 0.011 mg/kg.
On to `COc1cccc2c1CCN(C(=O)Cc1ccc(C(F)(F)F)cc1)C2CN1CCCCC1` (stereo not shown) [Example 35, 1-(piperidin-1-yl)methyl-2-(4-trifluoromethylphenyl)acetyl5-methoxy-1,2,3,4-tetrahydroisoquinoline hydrochloride], for which the inhibition constant Ki at MU opiate receptor (setting [4]) is roughly 1 µM. For the same molecule, the median effective dose (ED50) was 0.204 mg/kg in the experiment on mice [2] and 0.689 mg/kg in the experiment with mice [1].
The like results for `COc1cccc2c1CCN(C(=O)Cc1ccc(Cl)c(Cl)c1)C2CN1CCCCC1` (stereo not shown) [Example 36, 1-(piperidin-1-yl)methyl-2-(3,4-dichlorophenyl)acetyl-5-methoxy-1,2,3,4-tetrahydroisoquinoline hydrochloride] were, in that order, roughly 1 µM, 0.163 mg/kg and 0.924 mg/kg.
For the molecule `O=C(Cc1ccc(C(F)(F)F)cc1)N1CCc2c(O)cccc2C1CN1CCCCC1` (stereo not shown) [Example 37, 1-(piperidin-1-yl)methyl-2-(4-trifluoromethylphenyl)acetyl5-hydroxy-1,2,3,4-tetrahydroisoquinoline hydrochloride], on MU opiate receptor (setting [3]), the Ki is 0.00538 µM. Moreover, the 50% effective dose (ED50) in the experiment on mice [2] was 0.0013 mg/kg; in the experiment with mice [1], 0.007 mg/kg.
As to `O=C(Cc1ccc(Cl)c(Cl)c1)N1CCc2c(O)cccc2C1CN1CCCCC1` (stereo not shown) [Example 38, 1-(piperidin-1-yl)methyl-2-(3,4-dichlorophenyl)acetyl-5-hydroxy-1,2,3,4-tetrahydroisoquinoline hydrochloride], the Ki on MU opiate receptor (setting [3]) turned out to be 0.0114 µM. Besides, the results for the ED50 in the experiment on mice [2] and with mice [1] were 0.004 mg/kg and 0.01 mg/kg, respectively.
Take `COc1ccc2c(c1OC)CCN(C(=O)Cc1ccc(Cl)c(Cl)c1)C2CN1CCCC1` (stereo not shown) [Example 39, 1-(pyrrolidin-1-yl)methyl-2-(3,4-dichlorophenyl)acetyl-5,6-dimethoxy-1,2,3,4-tetrahydroisoquinoline hydrochloride]: the ED50 in the experiment on mice [1] is greater than 1 mg/kg.
As to `O=C(Cc1ccc(Cl)c(Cl)c1)N1CCc2c(ccc(O)c2O)C1CN1CCCC1` (stereo not shown) [Example 40, 1-(pyrrolidin-1-yl)methyl-2-(3,4-dichlorophenyl)acetyl-5,6-dihydroxy-1,2,3,4-tetrahydroisoquinoline hydrochloride], the inhibitory constant (Ki) on MU opiate receptor (setting [3]) is 0.0492 µM. The figures for the ED50 in the experiment with mice [2] and in the experiment with mice [1] were 0.429 mg/kg and 0.461 mg/kg, respectively.
For `CC(=O)Oc1cccc2c1CCN(C(=O)Cc1ccc(Cl)c(Cl)c1)C2CN1CCCC1` (stereo not shown) [Example 52, 1-(pyrrolidin-1-yl)methyl-2-(3,4-dichlorophenyl)acetyl-5-acetoxy-1,2,3,4-tetrahydroisoquinoline hydrochloride], the 50% effective dose (ED50) with mice [2] is 0.005 mg/kg; in the experiment with mice [1], 0.024 mg/kg.

These data come from patent publication US4954509A, “Isoquinoline derivatives and their use as analgesics” (Dr. Lo. Zambeletti S.p.A., priority 1988, dated 1990).
